Measurements taken from patent US8492371B2, “Compounds as cannabinoid receptor ligands” (priority 2009, dated 2013).
Read-outs that look alike come from different tables or passages of the source.

Key:
[1] = target: T1, human CB2 receptors (Homo sapiens, UniProt P34972); assay: Human CB2 radioligand binding assay ([3H]CP-55,940 competition)
T1 construct: expressed in transfected cells; host or cells: HEK293
Protocol: The CB1 and CB2 radioligand binding assays described herein are utilized to determine the selectivity of compounds of the present invention for binding to CB2 relative to CB1 receptors.
(§1) HEK293 cells stably expressing human CB2 receptors were grown until a confluent monolayer was formed. Briefly, the cells were harvested and homogenized in TE buffer (50 mM Tris-HCl, 1 mM MgCl2, and 1 mM EDTA) using a polytron for 2×10 second bursts in the presence of protease inhibitors, followed by centrifugation at 45,000×g for 20 minutes. The final membrane pellet was re-homogenized in storage buffer (50 mM Tris-HCl, 1 mM MgCl2, and 1 mM EDTA and 10% sucrose) and frozen at −78° C. until used. Saturation binding reactions were initiated by the addition of membrane preparation (protein concentration of 5 μg/well for human CB2) into wells of a deep well plate containing ([^3H]CP-55,940 (120 Ci/mmol, a nonselective CB agonist commercially available from Tocris) in assay buffer (50 mM Tris, 2.5 mM EDTA, 5 mM MgCl2, and 0.5 mg/mL fatty acid free BSA, pH 7.4). After 90 min incubation at 30° C., binding reaction was terminated by the addition of 300 μL/well of cold assay buffer followed by rapid vacuum filtration through a UniFilter-96 GF/C filter plates (pre-soaked in 1 mg/mL BSA for 2 hours). The bound activity was counted in a TopCount using Microscint-20. Saturation experiments were conducted with twelve concentrations of [^3H]CP-55,940 ranging from 0.01 to 8 nM. Competition experiments were conducted with 0.5 nM [^3H]CP-55,940 and five concentrations of displacing ligands selected from the range of 0.01 nM to 10 μM. The addition of 10 μM unlabeled CP-55,940 (Tocris, Ellisville, Mo.) was used to assess nonspecific binding.

[2] = target: T2, rat CB2 receptors (Rattus norvegicus, UniProt Q9QZN9); assay: Rat CB2 radioligand binding assay ([3H]CP-55,940 competition)
T2 construct: expressed in transfected cells; host or cells: HEK293
T2 sequence (Q9QZN9 1-360): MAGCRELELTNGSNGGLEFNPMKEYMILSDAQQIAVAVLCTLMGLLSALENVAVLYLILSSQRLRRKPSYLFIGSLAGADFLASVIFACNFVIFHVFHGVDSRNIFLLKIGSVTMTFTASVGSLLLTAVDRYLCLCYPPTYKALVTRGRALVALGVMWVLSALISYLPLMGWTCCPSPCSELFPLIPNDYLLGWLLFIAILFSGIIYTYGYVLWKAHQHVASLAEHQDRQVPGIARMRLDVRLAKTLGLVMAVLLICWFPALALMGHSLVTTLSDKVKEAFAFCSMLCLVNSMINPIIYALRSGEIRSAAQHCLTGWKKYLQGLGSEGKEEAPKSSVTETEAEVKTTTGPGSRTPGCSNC
Protocol: as §1, with “expressing rat” for “expressing human”, “of 20” for “of 5”, “for rat” for “for human”, “containing [^3H]CP-55,940” for “containing ([^3H]CP-55,940”, “After 45” for “After 90”, “[…]” for “10 μM.”

[3] = HEK293 membranes, 0.5 nM [3H]CP-55,940, read-out: human CB2 Ki
[4] = HEK293 membranes, 0.5 nM [3H]CP-55,940, read-out: rat CB2 Ki

T1 sequence (P34972 whole entry): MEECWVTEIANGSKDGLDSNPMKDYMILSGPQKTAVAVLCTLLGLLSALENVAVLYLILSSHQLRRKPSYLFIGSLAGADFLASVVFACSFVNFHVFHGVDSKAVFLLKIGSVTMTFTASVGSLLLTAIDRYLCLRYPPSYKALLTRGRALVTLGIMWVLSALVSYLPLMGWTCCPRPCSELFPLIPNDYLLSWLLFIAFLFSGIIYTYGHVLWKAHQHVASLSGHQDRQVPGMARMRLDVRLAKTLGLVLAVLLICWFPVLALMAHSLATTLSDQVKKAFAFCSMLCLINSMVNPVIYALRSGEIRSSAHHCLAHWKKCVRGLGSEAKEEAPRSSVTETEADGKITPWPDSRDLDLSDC

**Q.** Which Ki [1] does the source give for `Cn1c(C(C)(C)C)c/c(=N\C(=O)c2cc(C(F)(F)F)ccc2NC(=O)OC(C)(C)C)n1C[C@H]1CCCO1` [Example 120, tert-butyl 2-[({(3E)-5-tert-butyl-1-methyl-2-[(2R)-tetrahydrofuran-2-ylmethyl]-1,2-dihydro-3H-pyrazol-3-ylidene}amino)carbonyl]-4-(trifluoromethyl)phenylcarbamate] here?
**A.** 1.7 nM

**Q.** What about the Ki [2] of the same molecule?
**A.** 2.1 nM

**Q.** Which results are given for `Cn1c(C(C)(C)C)c/c(=N\C(=O)c2cc(C(F)(F)F)ccc2OCC(F)F)n1C[C@H]1CCCO1` [Example 35, N-{(3E)-5-tert-butyl-1-methyl-2-[(2R)-tetrahydrofuran-2-ylmethyl]-1,2-dihydro-3H-pyrazol-3-ylidene}-2-(2,2-difluoroethoxy)-5-(trifluoromethyl)benzamide]?
**A.** Ki [1]: 17 nM; Ki [2]: 5.5 nM

**Q.** What does the source list for `COCCOc1ccc(Br)cc1C(=O)/N=c1\cc(C(C)(C)C)n(C)n1C[C@H]1CCCO1` [Example 58, 5-bromo-N-{(3E)-5-tert-butyl-1-methyl-2-[(2R)-tetrahydrofuran-2-ylmethyl]-1,2-dihydro-3H-pyrazol-3-ylidene}-2-(2-methoxyethoxy)benzamide]?
**A.** Ki [1]: 31 nM; Ki [2]: 69 nM

**Q.** With `Cn1c(C2(C)CC2)c/c(=N\C(=O)c2cc(C(F)(F)F)ccc2OCC2(O)CCC2)n1C[C@H]1CCCO1` [Example 102, 2-[(1-hydroxycyclobutyl)methoxy]-N-{(3E)-1-methyl-5-(1-methylcyclopropyl)-2-[(2 R)-tetrahydrofuran-2-ylmethyl]-1,2-dihydro-3H-pyrazol-3-ylidene}-5-(trifluoromethyl)benzamide] as the molecule, how does the Ki [1] read?
**A.** 21 nM

**Q.** What about the Ki [2] of the same molecule?
**A.** 11 nM

**Q.** `CCOc1ccccc1C(=O)/N=c1\sc(C2CC2)nn1CC1CCCO1` (centres unmarked) [Example 3, N-[(2Z)-5-cyclopropyl-3-(tetrahydrofuran-2-ylmethyl)-1,3,4-thiadiazol-2(3H)-ylidene]-2-ethoxybenzamide] was tested. Which Ki [1, 3] did it give?
**A.** 114 nM

**Q.** What about the Ki [2] of the same molecule?
**A.** 71 nM

**Q.** `COCc1ccc(C(F)(F)F)cc1C(=O)/N=c1\cc(C(C)(C)C)n(C)n1C[C@H]1CCCO1` [Example 110, N-{(3E)-5-tert-butyl-1-methyl-2-[(2R)-tetrahydrofuran-2-ylmethyl]-1,2-dihydro-3H-pyrazol-3-ylidene}-2-(methoxymethyl)-5-(trifluoromethyl)benzamide] was tested. Which Ki [1] did it give?
**A.** 12 nM

**Q.** And the Ki [2]?
**A.** 3 nM

**Q.** What does the source list for `COc1ccc(C(F)(F)F)cc1C(=O)/N=c1\cc(C(C)(C)C)n(C)n1CC1CCOC1` (centres unmarked) [Example 85, N-[(3E)-5-tert-butyl-1-methyl-2-(tetrahydrofuran-3-ylmethyl)-1,2-dihydro-3H-pyrazol-3-ylidene]-2-methoxy-5-(trifluoromethyl)benzamide]?
**A.** Ki [1]: 87 nM; Ki [2]: 13 nM

**Q.** Which Ki [1, 3] does the source give for “N-({[(2Z)-5-tert-butyl-3-[(2R)-tetrahydrofuran-2-ylmethyl]-1,3,4-thiadiazol-2(3 H)-ylidene]amino}carbonyl)-L-phenylalaninamide [Example 80]” here?
**A.** 28 nM

**Q.** What about the Ki [2, 4] of the same molecule?
**A.** 38 nM

**Q.** Which results are given for `Cn1c(C(C)(C)C)c/c(=N\C(=O)c2cc(C(F)(F)F)ccc2CCC(C)(C)O)n1C[C@H]1CCCO1` [Example 101, N-{(3E)-5-tert-butyl-1-methyl-2-[(2R)-tetrahydrofuran-2-ylmethyl]-1,2-dihydro-3H-pyrazol-3-ylidene}-2-(3-hydroxy-3-methylbutyl)-5-(trifluoromethyl)benazmide]?
**A.** Ki [1]: 49 nM; Ki [2]: 34 nM

**Q.** Which results are given for `CNC(=O)[C@@H](NC(=O)/N=c1\sc(C(C)(C)C)nn1C[C@H]1CCCO1)C(C)(C)C` [Example 82, N^2-({[(2Z)-5-tert-butyl-3-[(2R)-tetrahydrofuran-2-ylmethyl]-1,3,4-thiadiazol-2(3H)-ylidene]amino}carbonyl)-N^1,3-dimethyl-L-valinamide]?
**A.** Ki [1]: 3.8 nM; Ki [2]: 10 nM

**Q.** Which Ki [1] does the source give for `COc1ccc(Cl)cc1C(=O)/N=c1\sc(C2CC2)nn1CC1CCCO1` (centres unmarked) [Example 2, 5-chloro-N-[(2Z)-5-cyclopropyl-3-(tetrahydrofuran-2-ylmethyl)-1,3,4-thiadiazol-2(3 H)-ylidene]-2-methoxybenzamide] here?
**A.** 17 nM

**Q.** And the Ki [2]?
**A.** 12 nM

**Q.** How did the Ki [1] turn out when `CN1CC[C@H](Oc2ccc(C(F)(F)F)cc2C(=O)/N=c2\sc(C(C)(C)C)nn2C[C@H]2CCCO2)C1` [Example 97, N-[(2Z)-5-tert-butyl-3-[(2R)-tetrahydrofuran-2-ylmethyl]-1,3,4-thiadiazol-2(3 H)-ylidene]-2-{[(3S)-1-methylpyrrolidin-3-yl]oxy}-5-(trifluoromethyl)benazmide] was run?
**A.** 63 nM

**Q.** What about the Ki [2] of the same molecule?
**A.** 46 nM

**Q.** Which results are given for `Cn1c(C(C)(C)C)c/c(=N\C(=O)c2cc(C(F)(F)F)ccc2N)n1C[C@H]1CCCO1` [Example 112, 2-amino-N-{(3E)-5-tert-butyl-1-methyl-2-[(2R)-tetrahydrofuran-2-ylmethyl]-1,2-dihydro-3H-pyrazol-3-ylidene}-5-(trifluoromethyl)benzamide]?
**A.** Ki [1]: 3.3 nM; Ki [2]: 2.4 nM

**Q.** Which Ki [1] does the source give for `COc1ccc(C(F)(F)F)cc1C(=O)/N=c1\c2c(n(C)n1C[C@H]1CCCO1)CCC2` [Example 32, 2-methoxy-N-[(3E)-1-methyl-2-[(2R)-tetrahydrofuran-2-ylmethyl]-1,4,5,6-tetrahydrocyclopenta[c]pyrazol-3(2H)-ylidene]-5-(trifluoromethyl)benzamide] here?
**A.** 261 nM

**Q.** And the Ki [2, 4]?
**A.** 114 nM

**Q.** Which results are given for `COc1c(Cl)cc(C(F)(F)F)cc1C(=O)/N=c1\cc(C(C)(C)C)n(C)n1C[C@H]1CCCO1` [Example 53, N-{(3E)-5-tert-butyl-1-methyl-2-[(2R)-tetrahydrofuran-2-ylmethyl]-1,2-dihydro-3H-pyrazol-3-ylidene}-3-chloro-2-methoxy-5-(trifluoromethyl)benzamide]?
**A.** Ki [1]: 16 nM; Ki [2]: 4.3 nM

**Q.** `CCOC(=O)CCc1ccc(C(F)(F)F)cc1C(=O)/N=c1\cc(C(C)(C)C)n(C)n1C[C@H]1CCCO1` [Example 131, ethyl 3-[2-[({(3E)-5-tert-butyl-1-methyl-2-[(2R)-tetrahydrofuran-2-ylmethyl]-1,2-dihydro-3H-pyrazol-3-ylidene}amino)carbonyl]-4-(trifluoromethyl)phenyl]propanoate] was tested. Which Ki [1] did it give?
**A.** 23 nM

**Q.** And the Ki [2]?
**A.** 18 nM

**Q.** `COc1ccc(Cl)cc1C(=O)/N=c1\sc(C2(C)CC(F)(F)C2(F)F)nn1C[C@H]1CCCO1` (some centres unmarked) [Example 7, 5-chloro-2-methoxy-N-[(2Z)-5-(2,2,3,3-tetrafluoro-1-methylcyclobutyl)-3-[(2 R)-tetrahydrofuran-2-ylmethyl]-1,3,4-thiadiazol-2(3H)-ylidene]benzamide] was tested. Which Ki [1] did it give?
**A.** 38 nM

**Q.** What about the Ki [2] of the same molecule?
**A.** 1.6 nM

**Q.** What does the source list for `COc1ccc(Cl)cc1C(=O)/N=c1\cc(C(C)(C)C)n(C)n1C[C@H]1CCCO1` [Example 45, N-{(3E)-5-tert-butyl-1-methyl-2-[(2R)-tetrahydrofuran-2-ylmethyl]-1,2-dihydro-3H-pyrazol-3-ylidene}-5-chloro-2-methoxybenzamide]?
**A.** Ki [1]: 8.2 nM; Ki [2]: 4.9 nM

**Q.** For `COc1ccc(Cl)cc1C(=O)/N=c1\sc(C(C)(C)C)nn1C[C@H]1CCCO1` [Example 4, N-[(2Z)-5-tert-butyl-3-[(2R)-tetrahydrofuran-2-ylmethyl]-1,3,4-thiadiazol-2(3 H)-ylidene]-5-chloro-2-methoxybenzamide], which Ki [1] is on record?
**A.** 6.9 nM

**Q.** What about the Ki [2] of the same molecule?
**A.** 1.2 nM
